Data taken from PubChem BioAssay AID1845217 (Molecular Pharmacology Branch, DTP, NCI, 2023).
pIC50: −log10 of the molar value.

Test system: VA-ES-BJ tumor spheroid viability
Experiment: Anticancer human tumor VA-ES-BJ cell line growth inhibition;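 note: spheroids exposed to compounds for seven days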;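 for viability, T/C: percent of DMSO vehicle control viability so 100% = untreated growth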
Settings: spheroids with HUVEC and MSC; for pIC50: curve of first compound; for viability, T/C: stronger effect = lower value
Outline: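 Complex tumor spheroids combined malignant cells with endothelial cells and mesenchymal stem cells. DNA-damaging drugs and DNA repair inhibitors were tested alone and in combination, at half-log dilutions down from clinical Cmax (top 10 microM if Cmax unknown), 0.25% DMSO final.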

Compound: COc1ccc([C@@H](O)c2cc(-c3ncnc4cc(N5CCOCC5)ccc34)c(F)cc2Cl)nn1 + CC[C@@]1(O)C(=O)OCc2c1cc1n(c2=O)Cc2cc3c(CN(C)C)c(O)ccc3nc2-1
- pIC50 (second compound 0.003 µM): 6.02
- pIC50 (second compound 0.00949 µM): 6.21
- pIC50 (second compound 0.03 µM): 7.10
- pIC50 (second compound 0.0949 µM): > 7.50
- pIC50 (second compound 0.3 µM): > 7.50
- viability, T/C (second compound 0.003 µM, first compound 0.0316 µM): 94.8%
- viability, T/C (second compound 0.003 µM, first compound 0.1 µM): 93.4%
- viability, T/C (second compound 0.003 µM, first compound 0.316 µM): 71%
- viability, T/C (second compound 0.003 µM, first compound 1 µM): 52.6%
- viability, T/C (second compound 0.003 µM, first compound 3.16 µM): 19.9%
- viability, T/C (second compound 0.003 µM, first compound 10 µM): 9.59%
- viability, T/C (second compound 0.00949 µM, first compound 0.0316 µM): 89.4%
- viability, T/C (second compound 0.00949 µM, first compound 0.1 µM): 77.2%
- viability, T/C (second compound 0.00949 µM, first compound 0.316 µM): 65.4%
- viability, T/C (second compound 0.00949 µM, first compound 1 µM): 40.6%
- viability, T/C (second compound 0.00949 µM, first compound 3.16 µM): 15.8%
- viability, T/C (second compound 0.00949 µM, first compound 10 µM): 8.03%
- viability, T/C (second compound 0.03 µM, first compound 0.0316 µM): 51.3%
- viability, T/C (second compound 0.03 µM, first compound 0.1 µM): 50.9%
- viability, T/C (second compound 0.03 µM, first compound 0.316 µM): 40.5%
- viability, T/C (second compound 0.03 µM, first compound 1 µM): 26.2%
- viability, T/C (second compound 0.03 µM, first compound 3.16 µM): 13.8%
- viability, T/C (second compound 0.03 µM, first compound 10 µM): 7.2%
- viability, T/C (second compound 0.0949 µM, first compound 0.0316 µM): 8.47%
- viability, T/C (second compound 0.0949 µM, first compound 0.1 µM): 9.28%
- viability, T/C (second compound 0.0949 µM, first compound 0.316 µM): 9.08%
- viability, T/C (second compound 0.0949 µM, first compound 1 µM): 8.66%
- viability, T/C (second compound 0.0949 µM, first compound 3.16 µM): 7.19%
- viability, T/C (second compound 0.0949 µM, first compound 10 µM): 6.29%
- viability, T/C (second compound 0.3 µM, first compound 0.0316 µM): 6.47%
- viability, T/C (second compound 0.3 µM, first compound 0.1 µM): 6.18%
- viability, T/C (second compound 0.3 µM, first compound 0.316 µM): 7.16%
- viability, T/C (second compound 0.3 µM, first compound 1 µM): 7.21%
- viability, T/C (second compound 0.3 µM, first compound 3.16 µM): 6.83%
- viability, T/C (second compound 0.3 µM, first compound 10 µM): 6.76%

Compound: CC(C)n1c(=O)n(C)c2cnc3cc(F)c(-c4ccc(OCCCN5CCCCC5)nc4)cc3c21 + Cn1nnc2c(C(N)=O)ncn2c1=O
- pIC50 (second compound 1 µM): < 5.00
- pIC50 (second compound 3.16 µM): < 5.00
- pIC50 (second compound 10 µM): < 5.00
- pIC50 (second compound 31.6 µM): < 5.00
- pIC50 (second compound 100 µM): < 5.00
- viability, T/C (second compound 1 µM, first compound 0.0316 µM): 93%
- viability, T/C (second compound 1 µM, first compound 0.1 µM): 92.2%
- viability, T/C (second compound 1 µM, first compound 0.316 µM): 93%
- viability, T/C (second compound 1 µM, first compound 1 µM): 105%
- viability, T/C (second compound 1 µM, first compound 3.16 µM): 110%
- viability, T/C (second compound 1 µM, first compound 10 µM): 77.8%
- viability, T/C (second compound 3.16 µM, first compound 0.0316 µM): 94%
- viability, T/C (second compound 3.16 µM, first compound 0.1 µM): 86.3%
- viability, T/C (second compound 3.16 µM, first compound 0.316 µM): 93.3%
- viability, T/C (second compound 3.16 µM, first compound 1 µM): 110%
- viability, T/C (second compound 3.16 µM, first compound 3.16 µM): 111%
- viability, T/C (second compound 3.16 µM, first compound 10 µM): 55.6%
- viability, T/C (second compound 10 µM, first compound 0.0316 µM): 92.2%
- viability, T/C (second compound 10 µM, first compound 0.1 µM): 94.3%
- viability, T/C (second compound 10 µM, first compound 0.316 µM): 88%
- viability, T/C (second compound 10 µM, first compound 1 µM): 103%
- viability, T/C (second compound 10 µM, first compound 3.16 µM): 111%
- viability, T/C (second compound 10 µM, first compound 10 µM): 62.1%
- viability, T/C (second compound 31.6 µM, first compound 0.0316 µM): 80.6%
- viability, T/C (second compound 31.6 µM, first compound 0.1 µM): 100%
- viability, T/C (second compound 31.6 µM, first compound 0.316 µM): 103%
- viability, T/C (second compound 31.6 µM, first compound 1 µM): 103%
- viability, T/C (second compound 31.6 µM, first compound 3.16 µM): 113%
- viability, T/C (second compound 31.6 µM, first compound 10 µM): 53.3%
- viability, T/C (second compound 100 µM, first compound 0.0316 µM): 103%
- viability, T/C (second compound 100 µM, first compound 0.1 µM): 102%
- viability, T/C (second compound 100 µM, first compound 0.316 µM): 106%
- viability, T/C (second compound 100 µM, first compound 1 µM): 116%
- viability, T/C (second compound 100 µM, first compound 3.16 µM): 109%
- viability, T/C (second compound 100 µM, first compound 10 µM): 101%
